Assay results reported in patent US11123337B2, “4-methylsulfonyl-substituted piperidine urea compounds” (MYOKARDIA, INC., priority 2015, dated 2021).

Molecular target: bovine cardiac myosin (Bos taurus, UniProt Q9BE39)
Assay: Myosin activation assay (PK/LDH-coupled ATPase, bovine cardiac myofibrils)
Type: biochemical
Details: AC20 = concentration at which total response is increased by twenty percent
In short: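 Values are the concentrations raising the ATPase rate by 20% or 50% over DMSO, from 10-point dose responses fitted with four parameters. Rate is NADH loss at 340 nm via PK/LDH coupling, read 15 min at room temperature, in pH 6.8 PIPES with 50 μM ATP. Bovine cardiac myofibrils were held at pCa ~6 or pCa 10.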

Chain of bovine cardiac myosin (Q9BE39 whole entry): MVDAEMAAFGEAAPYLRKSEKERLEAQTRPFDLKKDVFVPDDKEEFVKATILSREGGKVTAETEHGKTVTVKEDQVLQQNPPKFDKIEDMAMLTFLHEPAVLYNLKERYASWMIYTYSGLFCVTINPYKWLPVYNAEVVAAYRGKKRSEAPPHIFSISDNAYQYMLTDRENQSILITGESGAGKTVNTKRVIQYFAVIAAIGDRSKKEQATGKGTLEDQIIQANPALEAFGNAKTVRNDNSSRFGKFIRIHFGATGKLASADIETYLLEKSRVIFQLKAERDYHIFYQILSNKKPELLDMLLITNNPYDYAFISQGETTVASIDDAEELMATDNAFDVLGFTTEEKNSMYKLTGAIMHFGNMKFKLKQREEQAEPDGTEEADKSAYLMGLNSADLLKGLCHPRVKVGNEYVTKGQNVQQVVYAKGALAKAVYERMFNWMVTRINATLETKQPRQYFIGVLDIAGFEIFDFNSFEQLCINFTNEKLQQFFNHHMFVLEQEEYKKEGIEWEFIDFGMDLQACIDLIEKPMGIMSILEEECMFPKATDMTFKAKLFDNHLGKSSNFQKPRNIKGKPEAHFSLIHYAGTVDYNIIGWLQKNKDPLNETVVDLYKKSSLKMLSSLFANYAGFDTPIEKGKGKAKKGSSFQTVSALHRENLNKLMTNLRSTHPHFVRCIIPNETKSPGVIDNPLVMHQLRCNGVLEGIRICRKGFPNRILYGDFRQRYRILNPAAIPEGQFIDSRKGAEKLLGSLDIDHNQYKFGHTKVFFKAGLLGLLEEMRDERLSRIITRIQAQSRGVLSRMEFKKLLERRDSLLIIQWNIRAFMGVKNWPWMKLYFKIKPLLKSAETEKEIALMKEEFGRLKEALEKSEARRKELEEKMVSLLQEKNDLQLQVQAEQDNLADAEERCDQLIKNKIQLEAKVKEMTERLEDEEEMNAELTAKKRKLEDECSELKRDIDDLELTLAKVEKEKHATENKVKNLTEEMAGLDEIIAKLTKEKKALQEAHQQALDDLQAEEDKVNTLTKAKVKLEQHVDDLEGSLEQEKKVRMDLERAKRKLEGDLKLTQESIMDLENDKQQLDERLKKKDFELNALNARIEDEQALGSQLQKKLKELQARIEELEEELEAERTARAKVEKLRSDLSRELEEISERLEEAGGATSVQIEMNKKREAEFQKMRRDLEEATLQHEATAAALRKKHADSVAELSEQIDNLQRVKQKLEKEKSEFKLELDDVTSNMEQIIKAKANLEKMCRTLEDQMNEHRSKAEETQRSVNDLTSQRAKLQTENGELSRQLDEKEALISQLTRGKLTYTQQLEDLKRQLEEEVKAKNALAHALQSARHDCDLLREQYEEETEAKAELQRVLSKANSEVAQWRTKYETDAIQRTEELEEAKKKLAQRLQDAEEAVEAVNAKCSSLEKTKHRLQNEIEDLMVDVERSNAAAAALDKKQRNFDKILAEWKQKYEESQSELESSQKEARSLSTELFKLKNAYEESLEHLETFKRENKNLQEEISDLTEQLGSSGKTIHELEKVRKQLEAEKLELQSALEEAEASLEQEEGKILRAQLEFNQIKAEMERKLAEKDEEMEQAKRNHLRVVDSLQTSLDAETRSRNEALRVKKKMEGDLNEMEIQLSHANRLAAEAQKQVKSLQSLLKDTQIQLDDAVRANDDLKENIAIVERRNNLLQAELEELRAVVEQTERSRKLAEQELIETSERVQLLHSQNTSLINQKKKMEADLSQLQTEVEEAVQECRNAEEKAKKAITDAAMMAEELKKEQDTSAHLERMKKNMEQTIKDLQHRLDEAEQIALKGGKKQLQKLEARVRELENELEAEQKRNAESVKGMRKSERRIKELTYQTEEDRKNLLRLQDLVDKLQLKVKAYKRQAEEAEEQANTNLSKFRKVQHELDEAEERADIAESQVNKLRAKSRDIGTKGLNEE
Chain of bovine cardiac myosin (P85100 whole entry partner): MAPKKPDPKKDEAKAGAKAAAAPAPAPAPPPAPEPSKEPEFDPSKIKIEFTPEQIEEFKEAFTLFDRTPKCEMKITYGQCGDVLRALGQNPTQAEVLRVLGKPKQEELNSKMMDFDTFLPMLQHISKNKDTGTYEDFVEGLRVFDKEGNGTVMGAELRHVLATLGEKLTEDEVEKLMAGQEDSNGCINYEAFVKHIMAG
Chain of bovine cardiac myosin (Q3SZE5 whole entry partner): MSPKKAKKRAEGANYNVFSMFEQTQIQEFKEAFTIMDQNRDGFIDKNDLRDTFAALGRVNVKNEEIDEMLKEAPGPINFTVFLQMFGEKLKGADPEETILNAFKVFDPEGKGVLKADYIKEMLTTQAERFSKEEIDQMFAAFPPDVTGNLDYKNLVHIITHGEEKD

Row | Structure (SMILES) | Myosin Activation (AC20)
1 | Cc1cc(NC(=O)N2CCC(C(C)(C)S(=O)(=O)c3cccc(F)c3)CC2)no1 [Compound 142, 4-(2-((3-fluorophenyl)sulfonyl)propan-2-yl)-N-(5-methylisoxazol-3-yl)piperidine-1-carboxamide] | + (+ represents myosin activation value AC20 > 5 μM)
2 | Cc1cc(OC(F)(F)F)ccc1S(=O)(=O)C(F)(F)C1CCN(C(=O)Nc2ccnnc2)CC1 [Compound 73, 4-(difluoro((2-methyl-4-(trifluoromethoxy)phenyl)sulfonyl)methyl)-N-(pyridazin-4-yl)piperidine-1-carboxamide] | ++ (++ represents myosin activation value AC20 from 2 μM-5 μM)
3 | CC(F)(C1CCN(C(=O)Nc2nnco2)CC1)S(=O)(=O)c1cccc(F)c1 (stereo not shown) [Compound 222, 4-(1-fluoro-1-((3-fluorophenyl)sulfonyl)ethyl)-N-(1,3,4-oxadiazol-2-yl)piperidine-1-carboxamide] | + (+ represents myosin activation value AC20 > 5 μM)
4 | CC(C)(C1CCN(C(=O)Nc2ccnnc2)CC1)S(=O)(=O)c1ccc2ccnn2c1 [Compound 189, 4-(2-(pyrazolo[1,5-a]pyridin-6-ylsulfonyl)propan-2-yl)-N-(pyridazin-4-yl)piperidine-1-carboxamide] | +++ (+++ represents myosin activation value AC20 < 2 μM)
5 | Cn1nc(C(F)(F)F)cc1S(=O)(=O)[C@](C)(F)C1CCN(C(=O)Nc2ccnc(F)c2)CC1 [Compound 230, (S)-4-(1-fluoro-1-((1-methyl-3-(trifluoromethyl)-1H-pyrazol-5-yl)sulfonyl)ethyl)-N-(2-fluoropyridin-4-yl)piperidine-1-carboxamide] | + (+ represents myosin activation value AC20 > 5 μM)
6 | CCn1nccc1S(=O)(=O)C(F)(F)C1CCN(C(=O)Nc2ccnnc2)CC1 [Compound 85, 4-(((1-ethyl-1H-pyrazol-5-yl)sulfonyl)difluoromethyl)-N-(pyridazin-4-yl)piperidine-1-carboxamide] | + (+ represents myosin activation value AC20 > 5 μM)
7 | Cc1cnccc1NC(=O)N1CCC(C(C)(C)S(=O)(=O)c2cccc(F)c2)CC1 [Compound 214, 4-(2-((3-fluorophenyl)sulfonyl)propan-2-yl)-N-(3-methylpyridin-4-yl)piperidine-1-carboxamide] | + (+ represents myosin activation value AC20 > 5 μM)
8 | Cc1ccccc1S(=O)(=O)C(C)(C)C1CCN(C(=O)Nc2ccns2)CC1 [Compound 213, N-(isothiazol-5-yl)-4-(2-(o-tolylsulfonyl)propan-2-yl)piperidine-1-carboxamide] | +++ (+++ represents myosin activation value AC20 < 2 μM)
9 | O=C(Nc1ccnnc1)N1CCC(C(F)(F)S(=O)(=O)c2ccc(N3CCC3)nc2)CC1 [Compound 67, 4-(((6-(azetidin-1-yl)pyridin-3-yl)sulfonyl)difluoromethyl)-N-(pyridazin-4-yl)piperidine-1-carboxamide] | ++ (++ represents myosin activation value AC20 from 2 μM-5 μM)
10 | O=C(Nc1ccncc1)N1CCC(CS(=O)(=O)c2cccc(F)c2)CC1 [Compound 33, 4-(((3-fluorophenyl)sulfonyl)methyl)-N-(pyridin-4-yl)piperidine-1-carboxamide] | + (+ represents myosin activation value AC20 > 5 μM)
11 | CC(F)(C1CCN(C(=O)Nc2ccnnc2)CC1)S(=O)(=O)c1ccc(C#N)cc1 (stereo not shown) [Compound 270, 4-(1-((4-cyanophenyl)sulfonyl)-1-fluoroethyl)-N-(pyridazin-4-yl)piperidine-1-carboxamide] | +++ (+++ represents myosin activation value AC20 < 2 μM)
12 | CC(C)(C1CCN(C(=O)Nc2ccns2)CC1)S(=O)(=O)c1cccc(F)c1 [Compound 218, 4-(2-((3-fluorophenyl)sulfonyl)propan-2-yl)-N-(isothiazol-5-yl)piperidine-1-carboxamide] | ++ (++ represents myosin activation value AC20 from 2 μM-5 μM)
13 | Cc1ccc(NC(=O)N2CCC(C(C)(F)S(=O)(=O)c3cccc(F)c3)CC2)cn1 (stereo not shown) [Compound 295, 4-(1-fluoro-1-((3-fluorophenyl)sulfonyl)ethyl)-N-(6-methylpyridin-3-yl)piperidine-1-carboxamide] | + (+ represents myosin activation value AC20 > 5 μM)
14 | CC(F)(C1CCN(C(=O)Nc2ccc(F)nc2)CC1)S(=O)(=O)c1ccc(C(F)(F)F)cc1 (stereo not shown) [Compound 242, 4-(1-fluoro-1-((4-(trifluoromethyl)phenyl)sulfonyl)ethyl)-N-(6-fluoropyridin-3-yl)piperidine-1-carboxamide] | ++ (++ represents myosin activation value AC20 from 2 μM-5 μM)
15 | C[C@@H](O)c1cc(NC(=O)N2CCC([C@@](C)(F)S(=O)(=O)c3cn(C)nc3C(F)F)CC2)ccn1 [Compound 304, 4-((S)-1-((3-(difluoromethyl)-1-methyl-1H-pyrazol-4-yl)sulfonyl)-1-fluoroethyl)-N-(2-((R)-1-hydroxyethyl)pyridin-4-yl)piperidine-1-carboxamide] | + (+ represents myosin activation value AC20 > 5 μM)
16 | CC(C)(C1CCN(C(=O)Nc2cnns2)CC1)S(=O)(=O)c1cccc(F)c1 [Compound 211, 4-(2-((3-fluorophenyl)sulfonyl)propan-2-yl)-N-(1,2,3-thiadiazol-5-yl)piperidine-1-carboxamide] | +++ (+++ represents myosin activation value AC20 < 2 μM)
17 | Cn1nc(Cl)cc1S(=O)(=O)C(C)(C)C1CCN(C(=O)Nc2ccnnc2)CC1 [Compound 140, 4-(2-((3-chloro-1-methyl-1H-pyrazol-5-yl)sulfonyl)propan-2-yl)-N-(pyridazin-4-yl)piperidine-1-carboxamide] | +++ (+++ represents myosin activation value AC20 < 2 μM)
18 | CC(C)(C1CCN(C(=O)Nc2ccnnc2)CC1)S(=O)(=O)c1ccc(C(F)(F)F)nc1 [Compound 171, N-(pyridazin-4-yl)-4-(2-((6-(trifluoromethyl)pyridin-3-yl)sulfonyl)propan-2-yl)piperidine-1-carboxamide] | ++ (++ represents myosin activation value AC20 from 2 μM-5 μM)
19 | CC(C)(C1CCN(C(=O)Nc2ccon2)CC1)S(=O)(=O)c1cccc(C#N)c1 [Compound 112, 4-(2-((3-cyanophenyl)sulfonyl)propan-2-yl)-N-(isoxazol-3-yl)piperidine-1-carboxamide] | ++ (++ represents myosin activation value AC20 from 2 μM-5 μM)
20 | Cc1cc(NC(=O)N2CCC(C(C)(C)S(=O)(=O)c3cn(C)nc3C(F)F)CC2)no1 [Compound 144, 4-(2-((3-(difluoromethyl)-1-methyl-1H-pyrazol-4-yl)sulfonyl)propan-2-yl)-N-(5-methylisoxazol-3-yl)piperidine-1-carboxamide] | + (+ represents myosin activation value AC20 > 5 μM)
21 | Cc1cc(C#N)ccc1S(=O)(=O)C(C)(C)C1CCN(C(=O)Nc2ccnnc2)CC1 [Compound 196, 4-(2-((4-cyano-2-methylphenyl)sulfonyl)propan-2-yl)-N-(pyridazin-4-yl)piperidine-1-carboxamide] | ++ (++ represents myosin activation value AC20 from 2 μM-5 μM)
22 | Cn1cc(S(=O)(=O)C(C)(C)C2CCN(C(=O)Nc3cccnc3)CC2)c(C(F)F)n1 [Compound 118, 4-(2-((3-(difluoromethyl)-1-methyl-1H-pyrazol-4-yl)sulfonyl)propan-2-yl)-N-(pyridin-3-yl)piperidine-1-carboxamide] | +++ (+++ represents myosin activation value AC20 < 2 μM)
